From ChEMBL document CHEMBL5465560, “Selectivity Literature for EUbOPEN Chemogenomic Library” (2024) come the findings set out here.

The target of assay [1] is T1, Serine/threonine-protein kinase DCLK2 (Homo sapiens) (UniProt Q8N568).
T1 sequence (whole entry): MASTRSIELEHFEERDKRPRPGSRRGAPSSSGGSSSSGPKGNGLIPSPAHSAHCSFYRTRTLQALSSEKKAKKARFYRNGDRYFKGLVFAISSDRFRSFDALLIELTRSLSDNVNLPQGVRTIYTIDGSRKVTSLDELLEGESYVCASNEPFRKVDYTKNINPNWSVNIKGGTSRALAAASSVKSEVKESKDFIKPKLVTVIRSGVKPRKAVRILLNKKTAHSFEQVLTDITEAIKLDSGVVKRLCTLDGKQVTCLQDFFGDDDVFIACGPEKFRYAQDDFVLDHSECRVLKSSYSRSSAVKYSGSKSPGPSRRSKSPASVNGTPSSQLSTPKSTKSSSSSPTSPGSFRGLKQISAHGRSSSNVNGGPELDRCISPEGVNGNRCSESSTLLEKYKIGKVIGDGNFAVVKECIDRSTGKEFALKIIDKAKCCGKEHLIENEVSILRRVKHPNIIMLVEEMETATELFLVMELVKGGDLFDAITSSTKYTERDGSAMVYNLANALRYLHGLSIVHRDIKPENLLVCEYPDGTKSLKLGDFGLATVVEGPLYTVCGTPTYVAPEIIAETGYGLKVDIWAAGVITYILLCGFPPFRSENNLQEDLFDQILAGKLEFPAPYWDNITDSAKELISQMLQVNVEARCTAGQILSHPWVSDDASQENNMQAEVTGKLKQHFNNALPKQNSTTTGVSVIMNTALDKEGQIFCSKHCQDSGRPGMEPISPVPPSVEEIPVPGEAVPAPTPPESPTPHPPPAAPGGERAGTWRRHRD
The following applies: at 10 µM.

The target in assay [2] is T2, Phosphatidylinositol 3-kinase C2 domain-containing subunit gamma (Homo sapiens) (UniProt O75747).
T2 sequence (whole entry): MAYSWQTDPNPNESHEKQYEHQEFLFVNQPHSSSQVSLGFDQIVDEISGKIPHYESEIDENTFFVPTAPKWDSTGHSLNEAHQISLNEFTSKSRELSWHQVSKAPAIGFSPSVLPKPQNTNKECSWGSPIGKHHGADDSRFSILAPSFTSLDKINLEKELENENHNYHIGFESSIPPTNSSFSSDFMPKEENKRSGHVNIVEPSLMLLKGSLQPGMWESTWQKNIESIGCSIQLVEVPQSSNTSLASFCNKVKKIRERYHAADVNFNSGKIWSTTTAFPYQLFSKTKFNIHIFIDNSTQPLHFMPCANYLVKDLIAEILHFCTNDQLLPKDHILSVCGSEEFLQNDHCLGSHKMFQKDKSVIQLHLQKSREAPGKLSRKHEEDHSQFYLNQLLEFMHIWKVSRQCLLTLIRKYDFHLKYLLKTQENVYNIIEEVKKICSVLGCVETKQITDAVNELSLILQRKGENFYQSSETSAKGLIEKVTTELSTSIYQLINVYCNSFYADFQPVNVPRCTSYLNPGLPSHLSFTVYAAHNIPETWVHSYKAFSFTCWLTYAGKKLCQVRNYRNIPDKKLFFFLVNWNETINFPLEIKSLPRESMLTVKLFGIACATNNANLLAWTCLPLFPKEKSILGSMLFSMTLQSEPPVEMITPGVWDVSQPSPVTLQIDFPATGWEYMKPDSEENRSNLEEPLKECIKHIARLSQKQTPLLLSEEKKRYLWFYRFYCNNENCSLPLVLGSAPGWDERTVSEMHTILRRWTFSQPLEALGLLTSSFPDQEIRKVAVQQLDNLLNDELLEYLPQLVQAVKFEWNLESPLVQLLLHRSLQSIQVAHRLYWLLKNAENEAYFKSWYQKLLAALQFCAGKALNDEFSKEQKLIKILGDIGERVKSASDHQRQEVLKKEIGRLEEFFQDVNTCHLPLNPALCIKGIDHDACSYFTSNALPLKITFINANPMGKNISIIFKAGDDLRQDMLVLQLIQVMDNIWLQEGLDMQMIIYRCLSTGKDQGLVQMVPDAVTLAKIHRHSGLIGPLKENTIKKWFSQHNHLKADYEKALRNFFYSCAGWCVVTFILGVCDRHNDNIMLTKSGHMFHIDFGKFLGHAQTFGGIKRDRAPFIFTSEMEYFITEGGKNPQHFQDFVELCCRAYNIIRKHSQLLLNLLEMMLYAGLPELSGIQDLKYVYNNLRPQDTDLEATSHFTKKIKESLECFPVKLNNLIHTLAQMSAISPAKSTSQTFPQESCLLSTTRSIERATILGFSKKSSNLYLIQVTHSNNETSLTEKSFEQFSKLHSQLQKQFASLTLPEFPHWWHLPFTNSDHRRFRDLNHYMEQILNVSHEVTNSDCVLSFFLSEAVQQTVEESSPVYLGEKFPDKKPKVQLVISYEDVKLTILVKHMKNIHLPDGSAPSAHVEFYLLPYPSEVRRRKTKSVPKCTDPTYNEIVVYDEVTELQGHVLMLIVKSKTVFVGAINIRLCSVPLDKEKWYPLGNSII
The assay is described as follows: Selectivity interaction (KinomeScan (DiscoverX)) EUB0000695a PIK3C2G. The following applies: at 100 nM.

In assay [3] the target is PAS domain-containing serine/threonine-protein kinase (Homo sapiens) (UniProt Q96RG2). The assay is described as follows: Selectivity interaction (SelectScreen profiling (Invitrogen)) EUB0000607a PASK. Particulars: at 2 µM.
Assay [4] addresses Phosphatidylinositol 4-kinase beta (Homo sapiens, UniProt Q9UBF8). The assay is described as follows: Selectivity interaction (Ambit KINOMEscan and KiNATiv profiling in Jurkat cells) EUB0000090b PI4KB. Format: cell-based. Particulars: at 1 µM.

Sequence of PAS domain-containing serine/threonine-protein kinase (Homo sapiens) (Q96RG2 whole entry, the tested form may be a part): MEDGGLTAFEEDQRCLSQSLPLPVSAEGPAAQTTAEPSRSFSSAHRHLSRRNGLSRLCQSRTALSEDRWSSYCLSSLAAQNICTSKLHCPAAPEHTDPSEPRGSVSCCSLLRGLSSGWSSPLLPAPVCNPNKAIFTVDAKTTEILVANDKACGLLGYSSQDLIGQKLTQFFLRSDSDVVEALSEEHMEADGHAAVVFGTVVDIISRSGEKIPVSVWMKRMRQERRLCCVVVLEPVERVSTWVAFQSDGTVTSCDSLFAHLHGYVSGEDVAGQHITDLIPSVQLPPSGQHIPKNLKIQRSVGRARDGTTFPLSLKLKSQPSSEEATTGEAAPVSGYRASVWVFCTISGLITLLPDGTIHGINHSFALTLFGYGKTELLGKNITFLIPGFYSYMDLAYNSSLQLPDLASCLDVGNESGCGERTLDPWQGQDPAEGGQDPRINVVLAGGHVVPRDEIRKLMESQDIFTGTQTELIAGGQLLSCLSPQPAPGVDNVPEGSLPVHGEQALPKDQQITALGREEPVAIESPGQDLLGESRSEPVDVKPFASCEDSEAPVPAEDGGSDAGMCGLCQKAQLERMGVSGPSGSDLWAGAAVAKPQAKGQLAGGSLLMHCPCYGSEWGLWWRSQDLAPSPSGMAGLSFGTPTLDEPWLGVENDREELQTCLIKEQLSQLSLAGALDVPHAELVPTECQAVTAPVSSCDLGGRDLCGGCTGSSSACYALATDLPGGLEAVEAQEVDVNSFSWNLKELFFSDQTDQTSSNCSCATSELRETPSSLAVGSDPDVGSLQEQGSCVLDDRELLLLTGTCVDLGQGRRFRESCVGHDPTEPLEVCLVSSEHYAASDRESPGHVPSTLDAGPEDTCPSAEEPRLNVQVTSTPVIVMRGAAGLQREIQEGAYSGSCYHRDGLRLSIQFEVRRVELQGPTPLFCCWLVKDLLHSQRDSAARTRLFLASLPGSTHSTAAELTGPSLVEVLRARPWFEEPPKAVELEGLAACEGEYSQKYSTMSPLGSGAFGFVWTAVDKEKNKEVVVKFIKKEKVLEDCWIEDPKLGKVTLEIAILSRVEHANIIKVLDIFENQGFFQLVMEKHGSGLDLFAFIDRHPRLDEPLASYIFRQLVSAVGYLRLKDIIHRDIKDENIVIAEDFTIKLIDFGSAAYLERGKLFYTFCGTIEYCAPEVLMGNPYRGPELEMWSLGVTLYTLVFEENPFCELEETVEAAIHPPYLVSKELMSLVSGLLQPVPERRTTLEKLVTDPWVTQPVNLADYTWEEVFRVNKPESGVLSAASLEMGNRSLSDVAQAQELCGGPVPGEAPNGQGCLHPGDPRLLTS
Sequence of Phosphatidylinositol 4-kinase beta (Q9UBF8 2-816 limits assumed): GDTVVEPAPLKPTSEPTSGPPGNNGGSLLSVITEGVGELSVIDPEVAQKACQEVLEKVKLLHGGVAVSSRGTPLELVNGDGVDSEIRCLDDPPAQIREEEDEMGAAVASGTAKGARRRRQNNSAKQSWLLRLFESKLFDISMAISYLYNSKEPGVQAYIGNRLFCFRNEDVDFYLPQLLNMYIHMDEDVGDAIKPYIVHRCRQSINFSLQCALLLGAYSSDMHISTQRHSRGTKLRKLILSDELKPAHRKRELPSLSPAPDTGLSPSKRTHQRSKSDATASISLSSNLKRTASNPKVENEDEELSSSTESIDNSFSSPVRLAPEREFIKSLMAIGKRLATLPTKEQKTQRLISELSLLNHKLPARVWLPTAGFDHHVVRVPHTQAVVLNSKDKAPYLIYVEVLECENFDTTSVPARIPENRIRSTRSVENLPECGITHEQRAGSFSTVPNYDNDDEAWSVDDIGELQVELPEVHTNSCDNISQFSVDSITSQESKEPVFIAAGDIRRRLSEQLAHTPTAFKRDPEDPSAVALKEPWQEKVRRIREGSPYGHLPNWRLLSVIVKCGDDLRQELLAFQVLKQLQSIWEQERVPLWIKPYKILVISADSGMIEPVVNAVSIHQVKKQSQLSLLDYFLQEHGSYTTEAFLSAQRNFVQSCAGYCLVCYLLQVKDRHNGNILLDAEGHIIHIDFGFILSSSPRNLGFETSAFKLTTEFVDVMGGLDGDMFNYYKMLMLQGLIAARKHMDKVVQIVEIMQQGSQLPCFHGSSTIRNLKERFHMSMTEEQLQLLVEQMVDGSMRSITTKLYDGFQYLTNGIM

`CCN(CC)CCCCNc1ncc2cc(-c3cc(OC)cc(OC)c3)c(NC(=O)NC(C)(C)C)nc2n1` had a % of control in assay [1] of 100%.
In turn, `Cc1cc(F)c(C(=O)Nc2cccc(-c3nncn3C(C)C)n2)cc1-n1cnc(C2CC2)c1` came in with a % of control in assay [2] of 87%.
Compound `CNC(=O)Nc1ccc(-c2nc(N3CC4CCC(C3)O4)c3cnn(C4CCC5(CC4)OCCO5)c3n2)cc1` had a % of inhibition in assay [3] of 3%.
`CN(C)C/C=C/C(=O)Nc1ccc(C(=O)N2CCCC(Nc3ncc(Cl)c(-c4c[nH]c5ccccc45)n3)C2)cc1` (centres undefined): in assay [4], the % of control came out at 88%.
